What all share (type): cell-based, human
For data set [1], the system named is pancreatic cancer HS766T cells. Briefly: Concentration-dependent proliferation inhibition, MTS. As to conditions: gradient 0.01-100 noml/L, MTS after 48 h. How it is done: (§1) 1) Breast cancer MCF7 cells, breast cancer MDA-MB-231 cells, gastric cancer AGS cells, pancreatic cancer HS766T cells, pancreatic cancer ASPC-1 cells, and prostate cancer PC-3 cells with a cell density of more than 90% in 10 cm^2 plates were plated in 96-well according to the cell growth rate. Transfection was performed after 12 h, and the groups (3 wells per group) were divided as follows: • blank control group: 20 uL of opti-MEM • negative control group (NC group) and experimental group: • A. 10 uL of opti-MEM and 0.2 uL of iMax were mixed well for 5 min • B. 10 uL of opti-MEM and small RNA were mixed well (the concentration gradient of experimental group was set as: 0.01 noml/L, 0.03 noml/L, 0.1 noml/L, 0.39 noml/L, 0.78 noml/L, 1.56 noml/L, 3.125 noml/L, 6.25 noml/L, 12.5 noml/L, 25 noml/L, 50 noml/L, 100 noml/L; the final concentration of sRNA in NC group was 100 noml/L) • C. solution A and solution B were mixed well and let stand for 15 min, and then was added at a 20 uL system • Note: 100 uL of nuclease-free water was added to 2 nmol of small RNA dry powder for dissolution at a storage concentration of 20 umol/L
(§2) 2) Detection of cell viability: MTS detection was performed after 48 h.
(§3) Formulation of MTS detection solution was as follows: opti-MEM:MTS A solution:MTS B solution=100:20:1. After removing the supernatant, 100 uL of MTS detection solution was added to each well and incubated for 0.5-2 h. Absorbance values at wavelengths of 490 nm and 630 nm were measured in a microplate reader.
as §1, with “dishes” for “plates”, “96-well plates” for “96-well”

For data set [2], the system named is breast cancer MCF7 cells. The description is as above. As to conditions: gradient 0.01-100 noml/L, MTS after 48 h. How it is done:
as §1, §2, §3
as §1, with “dishes” for “plates”, “96-well plates” for “96-well”

Data set [3] has as its system gastric cancer AGS cells. Described as above. As to conditions: gradient 0.01-100 noml/L, MTS after 48 h. How it is done: as §1, §2, §3
as §1, with “dishes” for “plates”, “96-well plates” for “96-well”

For data set [4], the system named is pancreatic cancer ASPC-1 cells. The description is as above. As to conditions: gradient 0.01-100 noml/L, MTS after 48 h. How it is done:
as §1, §2, §3
as §1, with “dishes” for “plates”, “96-well plates” for “96-well”

The test system of data set [5] is prostate cancer PC-3 cells. The data set is described as above. Particulars: gradient 0.01-100 noml/L, MTS after 48 h. How it is done:
as §1, §2, §3
as §1, with “dishes” for “plates”, “96-well plates” for “96-well”

Data set [6] has as its system prostate cancer PC-3 cells. The data set is described as follows: Apoptosis detection (Annexin V / PI). Particulars: 100 nmol/L, 48 h. How it is done: 1) PC-3 cells with a cell density of more than 90% in 10 cm^2 dishes were plated in 12-well plates according to the cell growth rate, and transfected after 12 h, and the groups were divided as follows: • blank control group (4 wells): 200 uL of opti-MEM per well • negative control group (NC group) and experimental group (3 wells each): the system of each well was as follows • A. 100 uL of opti-MEM and 2 uL of iMax were mixed well for 5 min • B. 100 uL of opti-MEM and 5 uL of small RNA (final concentration 100 nmol/L) were mixed well • C. solution A and solution B were mixed well and let stand for 15 min, and then was added to each well at a 200 uL system • Note: 100 uL of nuclease-free water was added to 2 nmol of small RNA dry powder for dissolution at a storage concentration of 20 umol/L
The supernatant and cells were collected after 48 h and washed twice with pre-chilled PBS. The 4 tubes of cells in the blank control group were added respectively with: (1) 200 uL of 1× binding buffer; (2) 200 uL of 1× binding buffer and 5 uL of Annexin V stain; (3) 200 uL of 1× binding buffer and 5 uL of PI stain; (4) 200 uL of 1× binding buffer, 5 uL of Annexin V stain and 5 uL of PI stain. […] The live cell population and the position of quadrant gate were selected according to the blank control group, and then the apoptosis of the NC group and the experimental group was detected.

As to “MDM-sRNA-39: small RNA derived from Maytenus hookeri, sequence GGGAUUGUAGUUCAAUUGGUCAGAGCACC (listed as RNA, chemistry not given here)”, the “proliferation-inhibiting function (cell activity, MTS)” value in data set [1], in data set [2], in data set [3], in data set [4] and in data set [5] was “concentration-dependent” throughout. Further, the apoptosis result in data set [6] is “promotes”.
Regarding “MDM-sRNA-163: small RNA derived from Maytenus hookeri, sequence UGACUCUAGUCCGACUUUGUGAAAUGACU (listed as RNA, chemistry not given here)”, the “proliferation-inhibiting function (cell activity, MTS)” value in data set [1], in data set [2], in data set [3], in data set [4] and in data set [5] was “concentration-dependent” throughout. Besides, the apoptosis result in data set [6] was “promotes”.

The values above are taken from US20250302862A1, “SMALL RNA DRUG FOR INHIBITING ACTIVITY OF CANCER CELLS” (Institute of Basic Medical Sciences Chinese Academy of …, priority 2022, published 2025).
